ChEMBL document CHEMBL1781926, “Synthesis of 1-naphtylpiperazine derivatives as serotoninergic ligands and their evaluation as antiproliferative agents” (Eur J Med Chem, 2011)
Activity calls are given as the source filed them. The calls are words filed in the database; no cut-off is given here.

How the values were obtained:
PC-3 [1] = experiment: Cell cycle arrest in human PC3 cells assessed as accumulation at G1 phase at 2 uM after 48 hrs using propidium iodide staining by flow cytometry (reference value: 54.14 %); type: functional
PC-3 [2] = experiment: Cell cycle arrest in human PC3 cells assessed as accumulation at G2 phase at 2 uM after 24 hrs using propidium iodide staining by flow cytometry (reference value: 18.19 %); type: functional
PC-3 [3] = experiment: Inhibition of serotonin-induced MAPK phosphorylation in human PC3 cells at 2 uM after 48 hrs by Western blotting; type: cell-based
PC-3 [4] = experiment: Induction of apoptosis in human PC3 cells at 2 uM after 72 hrs using propidium iodide staining by flow cytometry (reference value: 1.79 %); type: functional
PC-3 [5] = experiment: Cell cycle arrest in human PC3 cells assessed as accumulation at S phase at 2 uM after 24 hrs using propidium iodide staining by flow cytometry (reference value: 34.84 %); type: functional
PC-3 [6] = experiment: Cell cycle arrest in human PC3 cells assessed as accumulation at S phase at 2 uM after 48 hrs using propidium iodide staining by flow cytometry (reference value: 38.16 %); type: functional
PC-3 [7] = experiment: Induction of apoptosis in human PC3 cells at 2 uM after 48 hrs using propidium iodide staining by flow cytometry (reference value: 0.84 %); type: functional
PC-3 [8] = experiment: Cell cycle arrest in human PC3 cells assessed as accumulation at G1 phase at 2 uM after 24 hrs using propidium iodide staining by flow cytometry (reference value: 46.97 %); type: functional
PC-3 [9] = experiment: Cell cycle arrest in human PC3 cells assessed as accumulation at G2 phase at 2 uM after 72 hrs using propidium iodide staining by flow cytometry (reference value: 20.18 %); type: functional
PC-3 [10] = experiment: Induction of apoptosis human PC3 cells assessed as externalization of phosphatidylserine on the outer layer of plasma membrane at 1 uM after 24 to 48 hrs using Annexin-V-FITC staining by flow cytometry; type: functional, cell-based
[11] = target: RAC-alpha serine/threonine-protein kinase (Homo sapiens) (UniProt P31749); experiment: Inhibition of serotonin-induced AKT phosphorylation in human PC3 cells at 2 uM after 48 hrs by Western blotting; type: cell-based; conditions: PC-3
PC-3 [12] = experiment: Induction of apoptosis in human PC3 cells at 2 uM after 24 hrs using propidium iodide staining by flow cytometry (reference value: 1.27 %); type: functional
PC-3 [13] = experiment: Cell cycle arrest in human PC3 cells assessed as accumulation at S phase at 2 uM after 72 hrs using propidium iodide staining by flow cytometry (reference value: 37.73 %); type: functional
PC-3 [14] = experiment: Cell cycle arrest in human PC3 cells assessed as accumulation at G1 phase at 2 uM after 72 hrs using propidium iodide staining by flow cytometry (reference value: 42.19 %); type: functional
PC-3 [15] = experiment: Cell cycle arrest in human PC3 cells assessed as accumulation at G2 phase at 2 uM after 48 hrs using propidium iodide staining by flow cytometry (reference value: 13.36 %); type: functional

Sequence of RAC-alpha serine/threonine-protein kinase (Homo sapiens) (P31749 whole entry): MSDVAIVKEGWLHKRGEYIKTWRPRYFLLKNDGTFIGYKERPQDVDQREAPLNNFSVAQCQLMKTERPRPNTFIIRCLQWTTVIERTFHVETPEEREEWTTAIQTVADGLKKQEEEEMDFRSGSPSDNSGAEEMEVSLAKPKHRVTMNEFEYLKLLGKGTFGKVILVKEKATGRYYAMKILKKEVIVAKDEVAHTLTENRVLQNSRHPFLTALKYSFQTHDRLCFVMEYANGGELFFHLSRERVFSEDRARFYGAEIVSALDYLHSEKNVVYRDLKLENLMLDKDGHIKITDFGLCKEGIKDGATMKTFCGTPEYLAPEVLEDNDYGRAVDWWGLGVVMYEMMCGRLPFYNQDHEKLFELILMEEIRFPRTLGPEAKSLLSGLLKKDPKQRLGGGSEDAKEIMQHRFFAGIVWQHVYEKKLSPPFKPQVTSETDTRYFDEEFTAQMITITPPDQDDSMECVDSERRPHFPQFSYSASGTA

With `CC[C@@]1(O)C(=O)OCc2c1cc1n(c2=O)Cc2cc3c(CN(C)C)c(O)ccc3nc2-1` [TOPOTECAN] the Activity (PC-3 [1]) was 19.17%, the Activity (PC-3 [2]) was 28.86% and the inhibition (PC-3 [3]) was “inactive”. It also gave an Activity (PC-3 [4]) of 8.14%, an Activity (PC-3 [5]) of 33.91% and an Activity (PC-3 [6]) of 61.76%. It also gave an Activity (PC-3 [7]) of 16.32%, an Activity (PC-3 [8]) of 37.23% and an Activity (PC-3 [9]) of 36.31%. For the same compound, the Activity (PC-3 [10]) was “Active”, the inhibition [11] was “Active” and the Activity (PC-3 [12]) was 5.43%. The Activity (PC-3 [13]) was 63.69%, the Activity (PC-3 [14]) was 0% and the Activity (PC-3 [15]) was 19.07%.
